Results taken from patent US20110251188A1, “ACENAPHTHO HETEROCYCLE COMPOUNDS, CYCLODEXTRIN INCLUSION COMPOUNDS AND COMPLEXES, AND USES IN THE MANUFACTURES OF BH3 PROTEIN ANALOGUE, BCL-2 FAMILY PROTEIN INHIBITORS THEREOF” (DALIAN UNIVERSITY OF TECHNOLOGY, priority 2008, published 2011).

Assays:
Mcl-1 = experiment: Western blotting, inhibition (downregulation) of Mcl-1 in tumor cells, Example 23; assay type: cell-based; settings: for inhibition against Mcl-1: Western blotting, tumor cells
Experimental: (§1) The interest protein was detected by the corresponding antibody. The expression of the interest protein in the cells was detected by horseradish peroxidase-labeled secondary antibodies in combination with ECL coloration method. […] The concentration of the protein bands in the Western images were carried out semiquantitative analysis and normalization treatment with KODAK Gel Logic 1500 imaging system software.

Bcl-2 = experiment: Western blotting, inhibition (downregulation) of Bcl-2 in tumor cells, Example 23; assay type: cell-based; settings: for inhibition against Bcl-2: Western blotting, tumor cells
Experimental: as §1

[1] = test system: hepatoma carcinoma cells H22; experiment: in vivo tumor model, subcutaneous H22 tumor in Kunming mice; settings: experimental group 2: peritoneal injection of DMSO solution, 0.3 mg/kg BW every other day, 10 days; tumor volume on the fortieth day
Experimental: The Kunming mice (in China) were randomly divided into groups, with 10 mice in each group. The cultivated hepatoma carcinoma cells H22 were inoculated subcutaneously in the oxter of the mice with 200 μL/mouse. After bearing the cancer cells for five days, the subcutaneous tumor was formed. Then the compound 3-thiomorpholinyl-8-oxo-8H-acenaphtho[1,2-b]pyrrole-9-carbonitrile and γ-cyclodextrin inclusion compound thereof were given by peritoneal injection, and the compound to be detected included by γ-cyclodextrin was given by oral administration. The detection conditions comprise:
Blank control group: the mice were not treated in any manner after the bearing cancer;
Control group (1): the mice were given a peritoneal injection of DMSO solution every other day after the bearing cancer, 10 days in total;
Control group (2): the mice were given a peritoneal injection of cyclodextrin solution every other day after the bearing cancer, 10 days in total;
Experimental group (1): the mice were given a peritoneal injection of DMSO solution equivalent to 0.03 mg/kg BW compound every other day after the bearing cancer, 10 days in total;
Experimental group (2): the mice were given a peritoneal injection of DMSO solution equivalent to 0.3 mg/kg BW compound every other day after the bearing cancer, 10 days in total;
Experimental group (3): the mice were given a peritoneal injection of inclusion compound water solution equivalent to 0.3 mg/kg BW compound every other day after the bearing cancer, 10 days in total;
Experimental group (4): the mice were given an intragastric administration of inclusion compounds water solution equivalent to 0.3 mg/kg BW compound every other day after the bearing cancer, 10 days in total;
During the experimental period, the length-diameter (a) and short diameter (b), which was perpendicular to the length-diameter, of the tumor were detected twice every week. The gross tumor volume was determined according to the formula: ½ab^2. The survival time of the animal was observed. The tumor inhibition rate was calculated by the tumor volume on the fortieth day.

| SMILES | downregulation of Mcl-1 protein, semiquantitative analysis (band concentration, control = 1) (Mcl-1; 6 hours) | downregulation of Mcl-1 protein, semiquantitative analysis (band concentration, control = 1) (Mcl-1; 12 hours) | downregulation of Mcl-1 protein, semiquantitative analysis (band concentration, control = 1) (Mcl-1; 18 hours) | downregulation of Mcl-1 protein, semiquantitative analysis (band concentration, control = 1) (Mcl-1; 24 hours) | inhibition against Mcl-1 (Mcl-1) | downregulation of Bcl-2 protein, semiquantitative analysis (band concentration, control = 1) (Bcl-2; 2 hours) | downregulation of Bcl-2 protein, semiquantitative analysis (band concentration, control = 1) (Bcl-2; 6 hours) | inhibition against Bcl-2 (Bcl-2) | tumor inhibition rate [1] |
| --- | --- | --- | --- | --- | --- | --- | --- | --- | --- |
| N#CC1=C2C(=NC1=O)c1c(Sc3ccc(N)cc3)ccc3c(Sc4ccc(N)cc4)ccc2c13 [3,6-di(4-aminophenylthio)-8-oxo-8 H-acenaphtho[1,2-b]pyrrole-9-carbonitrile] | 0.99 | 0.99 | 0.68 | 0.33 | had the inhibition against Bcl-2 and Mcl-1 proteins | 0.72 | 0.43 | had the inhibition against Bcl-2 and Mcl-1 proteins | about 50% |
| N#CC1=C2C(=NC1=O)c1c(Sc3ccc(Br)cc3)ccc3c(Sc4ccc(Br)cc4)ccc2c13 [3,6-di(4-bromophenylthio)-8-oxo-8H-acenaphtho[1,2-b]pyrrole-9-carbonitrile] | 0.99 | 0.99 | 0.70 | 0.57 | had the inhibition against Bcl-2 and Mcl-1 proteins | 0.68 | 0.49 | had the inhibition against Bcl-2 and Mcl-1 proteins | about 78% |
| N#CC1=C2C(=NC1=O)c1cccc3c(Sc4ccc(Br)cc4)ccc2c13 [3-(4-bromophenylthio)-8-oxo-8H-acenaphtho[1,2-b]pyrrole-9-carbonitrile] | 0.99 | 0.99 | 0.64 | 0.31 | had the inhibition against Bcl-2 and Mcl-1 proteins | 0.66 | 0.35 | had the inhibition against Bcl-2 and Mcl-1 proteins | about 40% |
| N#CC1=C2C(=NC1=O)c1c(Sc3ccc(N)cc3)ccc3cccc2c13 [6-(4-aminophenylthio)-8-oxo-8H-acenaphtho[1,2-b]pyrrole-9-carbonitrile] | 0.99 | 0.99 | 0.55 | 0.27 | had the inhibition against Bcl-2 and Mcl-1 proteins | 0.79 | 0.49 | had the inhibition against Bcl-2 and Mcl-1 proteins | about 30% |
| N#CC1=C2C(=NC1=O)c1cccc3cccc2c13 [8-oxo-8H-acenaphtho[1,2-b]pyrrole-9-carbonitrile] | 0.99 | 0.99 | 0.48 | 0.21 | had the inhibition against Bcl-2 and Mcl-1 proteins | 0.78 | 0.69 | had the inhibition against Bcl-2 and Mcl-1 proteins | about 60% |
